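Tested at 5 concentrations; 48 h exposure; 96-well plates; endpoints linearly interpolated, else capped at highest concentration. GI50 = concentration required for 50% inhibition of growth.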 The source made the active and inactive calls. No stated cut-off is given here; in the data, active = GI50 up to about 1.1 µM and inactive = higher.

Among the test systems are HOP-92; K562; RPMI-8226; SF-295; SNB-19; NCI-H226; ACHN; CCRF-CEM; HL-60; RXF 393; LOX IMVI; MOLT-4; EKVX; NCI-H23; UO-31; OVCAR-3; SNB-75; HCC 2998.
Common to all, as to assay: NCI tumour cell line growth inhibition, 48 h

For `CN1C(=O)C(Cl)(C(Cl)(Cl)S(=O)(=O)O)C(=O)c2ccccc21.c1ccncc1` (configuration not stated), the GI50 with HOP-92 is > 100 µM (inactive); in the experiment on K562, > 100 µM (inactive); with RPMI-8226, > 100 µM (inactive); in the experiment on SF-295, > 100 µM (inactive); with SNB-19 it was > 100 µM (inactive); in the experiment with NCI-H226, 33.7 µM (inactive). The GI50 is 76.4 µM (inactive) with ACHN; > 100 µM (inactive) in the experiment with CCRF-CEM; > 100 µM (inactive) in the experiment on HL-60; 53.7 µM (inactive) with RXF 393; > 100 µM (inactive) with LOX IMVI; > 100 µM (inactive) in the experiment with MOLT-4. Further, the GI50 was > 100 µM (inactive) in the experiment on EKVX; > 100 µM (inactive) in the experiment with NCI-H23; 91.2 µM (inactive) in the experiment on UO-31; > 100 µM (inactive) with OVCAR-3; 54.2 µM (inactive) in the experiment with SNB-75; > 100 µM (inactive) in the experiment with HCC 2998.

For the molecule `c1ccc(-c2nnc3nn4c(-c5ccccc5)cnnc4c3c2-c2ccccc2)cc1`, the GI50 with HOP-92 is 59.8 µM (inactive); in the experiment with K562, 75 µM (inactive); in the experiment on RPMI-8226, > 100 µM (inactive); with SF-295 it was 74 µM (inactive); with SNB-19, 25.2 µM (inactive); in the experiment with NCI-H226 it was > 100 µM (inactive). In addition, the GI50 was 55.6 µM (inactive) in the experiment with ACHN; > 100 µM (inactive) in the experiment with CCRF-CEM; 3.12 µM (inactive) in the experiment on HL-60; 14.7 µM (inactive) with RXF 393; > 100 µM (inactive) in the experiment with LOX IMVI; > 100 µM (inactive) in the experiment with MOLT-4. For the same molecule, the GI50 in the experiment with EKVX is 19.7 µM (inactive); in the experiment on NCI-H23, > 100 µM (inactive); in the experiment on UO-31 it was 23.2 µM (inactive); with OVCAR-3, 26.4 µM (inactive); in the experiment with SNB-75, 34.4 µM (inactive); with HCC 2998, 48.2 µM (inactive).

Regarding `COc1ccc(/C=N/N=C(\N)NO)cc1OC`, the GI50 is 84.7 µM (inactive) with HOP-92; 11.5 µM (inactive) in the experiment on K562; > 100 µM (inactive) in the experiment on RPMI-8226; 46.9 µM (inactive) in the experiment with SF-295; > 100 µM (inactive) in the experiment on SNB-19; 28.1 µM (inactive) in the experiment with NCI-H226. In addition, the GI50 in the experiment on ACHN was 25.6 µM (inactive); in the experiment on CCRF-CEM, 49.7 µM (inactive); in the experiment with HL-60 it was 63.1 µM (inactive); with RXF 393 it was 30.5 µM (inactive); with LOX IMVI it was 30.3 µM (inactive); with MOLT-4, > 100 µM (inactive). Also, the GI50 with EKVX was 26.2 µM (inactive); with NCI-H23, > 100 µM (inactive); in the experiment on UO-31, 28.1 µM (inactive); in the experiment on OVCAR-3, > 100 µM (inactive); in the experiment on SNB-75, 42.9 µM (inactive); with HCC 2998, > 100 µM (inactive).

As for `C[C@H](OCc1ccccc1)C(=O)N1CCS(=O)(=O)N2CCC[C@H]2C1=O`, the GI50 in the experiment with HOP-92, with K562, in the experiment on RPMI-8226, with SF-295, with SNB-19 and with NCI-H226 was > 100 µM (inactive) in each case. In addition, the GI50 in the experiment with ACHN, in the experiment on CCRF-CEM, in the experiment on HL-60, with RXF 393, in the experiment with LOX IMVI and in the experiment on MOLT-4 was > 100 µM (inactive) throughout. The GI50 in the experiment on EKVX, with NCI-H23, in the experiment on UO-31, in the experiment on OVCAR-3, in the experiment with SNB-75 and in the experiment on HCC 2998 was > 100 µM (inactive) in each case.

As for `COc1cc2c(c(OC)c1OC)-c1ccc(SC)c(=O)cc1C(CC(=O)Oc1cccc(F)c1)C2` (configuration not stated), the GI50 in the experiment on HOP-92 was 1.24 µM (inactive); in the experiment on K562 it was 0.149 µM (active); in the experiment with RPMI-8226, 0.165 µM (active); in the experiment with SF-295, 0.075 µM (active); in the experiment with SNB-19 it was 0.667 µM (active); in the experiment on NCI-H226, 0.184 µM (active). Also, the GI50 with ACHN was 0.243 µM (active); in the experiment on CCRF-CEM it was 0.228 µM (active); in the experiment on HL-60, 0.0906 µM (active); with RXF 393 it was 0.129 µM (active); in the experiment on LOX IMVI it was 0.197 µM (active); in the experiment on MOLT-4, 0.444 µM (active). In addition, the GI50 is 2.62 µM (inactive) in the experiment on EKVX; 0.259 µM (active) in the experiment on NCI-H23; 0.753 µM (active) in the experiment with UO-31; 0.0946 µM (active) in the experiment on OVCAR-3; 0.138 µM (active) in the experiment on SNB-75; 0.111 µM (active) in the experiment with HCC 2998.

As to `CS(=O)(=O)c1ccc(COP(N)(=O)N(CCCl)CCCl)cc1` (configuration not stated), the GI50 in the experiment on HOP-92, in the experiment with K562, with RPMI-8226, in the experiment on SF-295, with SNB-19 and in the experiment with NCI-H226 was > 100 µM (inactive) in each case. For the same molecule, the GI50 in the experiment on ACHN, in the experiment on CCRF-CEM, in the experiment on RXF 393, in the experiment with LOX IMVI, in the experiment with MOLT-4 and with NCI-H23 was > 100 µM (inactive) each time. The GI50 in the experiment on UO-31, in the experiment with OVCAR-3, with SNB-75 and in the experiment with HCC 2998 was > 100 µM (inactive) each time.

With `COc1ccc(-c2cc(=O)c3c(O)cc(O)cc3o2)c(OC)c1OC`, the GI50 in the experiment with HOP-92 is 72.6 µM (inactive); with K562, 42.7 µM (inactive); in the experiment on RPMI-8226, 17.6 µM (inactive); in the experiment with SF-295, 87.5 µM (inactive); with SNB-19 it was > 100 µM (inactive); in the experiment with NCI-H226, > 100 µM (inactive). Also, the GI50 in the experiment with ACHN was > 10 µM (inactive); in the experiment with CCRF-CEM, 50 µM (inactive); with HL-60 it was 10.1 µM (inactive); in the experiment with RXF 393 it was 48.8 µM (inactive); with LOX IMVI, 70.1 µM (inactive); in the experiment with EKVX, > 100 µM (inactive). For the same molecule, the GI50 with NCI-H23 is > 100 µM (inactive); in the experiment with OVCAR-3, 38.9 µM (inactive); in the experiment with SNB-75, 38.3 µM (inactive); in the experiment on HCC 2998, 92 µM (inactive).

For the molecule `CCCc1nn(C)c(CCC(=O)N(Cc2ccccc2)Cc2ccccc2)c1CC`, the GI50 with HOP-92, in the experiment on RPMI-8226, in the experiment on SF-295, with SNB-19, in the experiment with NCI-H226 and in the experiment on ACHN was > 100 µM (inactive) each time. Also, the GI50 in the experiment on CCRF-CEM, in the experiment on HL-60, with RXF 393, with LOX IMVI, in the experiment on EKVX and in the experiment on NCI-H23 was > 100 µM (inactive) in each case. Also, the GI50 in the experiment with UO-31 was > 100 µM (inactive); in the experiment with OVCAR-3 it was > 100 µM (inactive); with SNB-75 it was 47 µM (inactive); with HCC 2998, > 100 µM (inactive).

Turning to `COc1ccc(OC)c(CCc2ccccc2CC(=O)O)c1`, the GI50 with HOP-92, in the experiment on K562, in the experiment on RPMI-8226, in the experiment on SF-295, in the experiment on SNB-19 and in the experiment with NCI-H226 was > 100 µM (inactive) in each case. The GI50 in the experiment with ACHN, in the experiment on CCRF-CEM, in the experiment with HL-60, with RXF 393, in the experiment on LOX IMVI and with MOLT-4 was > 100 µM (inactive) each time. For the same molecule, the GI50 with EKVX was > 100 µM (inactive); in the experiment on NCI-H23 it was > 100 µM (inactive); in the experiment with UO-31, > 100 µM (inactive); in the experiment with OVCAR-3, > 100 µM (inactive); in the experiment on SNB-75, 35.5 µM (inactive); in the experiment on HCC 2998, > 100 µM (inactive).

Regarding `CC[C@H](C)C(=O)O[C@H]1C[C@@H](C)C=C2C=C[C@H](C)[C@H](CC[C@@H]3C[C@@H](O)CC(=O)O3)[C@H]21` [LOVASTATIN], the GI50 in the experiment on HOP-92 was 0.0308 µM (active); in the experiment on K562, 19.5 µM (inactive); with RPMI-8226, > 30 µM (inactive); with NCI-H226, 11.9 µM (inactive); with ACHN, 1.76 µM (inactive); with CCRF-CEM, 18.4 µM (inactive). Moreover, the GI50 with HL-60 was 8.83 µM (inactive); in the experiment on RXF 393 it was 2.52 µM (inactive); in the experiment with LOX IMVI, 1.58 µM (inactive); with MOLT-4, 26.8 µM (inactive); in the experiment with EKVX, > 30 µM (inactive); with NCI-H23 it was 1.02 µM (active). In addition, the GI50 in the experiment on UO-31 was 6.27 µM (inactive); in the experiment on OVCAR-3 it was > 30 µM (inactive); in the experiment with HCC 2998 it was 15.1 µM (inactive).

In the case of `CCC12CCCN(Cc3ccccc3)C1c1c(n(C)c3ccccc13)C(C(=O)OC)C2` (configuration not stated), the GI50 with HOP-92 is 79.8 µM (inactive); with K562 it was 93.5 µM (inactive); with RPMI-8226, 82.4 µM (inactive); with SF-295 it was 75.7 µM (inactive); in the experiment with SNB-19, 72.9 µM (inactive); in the experiment with NCI-H226 it was 66.2 µM (inactive). The GI50 is 182 µM (inactive) in the experiment on ACHN; 143 µM (inactive) with CCRF-CEM; 87.3 µM (inactive) with HL-60; 128 µM (inactive) in the experiment on RXF 393; 158 µM (inactive) with LOX IMVI; 74.3 µM (inactive) in the experiment on MOLT-4. For the same molecule, the GI50 in the experiment with EKVX is > 239 µM (inactive); in the experiment with NCI-H23 it was 77.1 µM (inactive); in the experiment on OVCAR-3, 53.7 µM (inactive); in the experiment with HCC 2998 it was 164 µM (inactive).

The values above are taken from ChEMBL document CHEMBL1201862, “PubChem BioAssay data set” (2004).
